In US20190262409A1, “NOVEL LACTOBACILLUS SAKEI AND COMPOSITION COMPRISING THE SAME” (CJ Cheiljedang Corporation, priority 2016, published 2019):

Experiments:
Assay type in all cases: in vivo
[1] = test system: obesity induced mice with high fat diet; assay: Measurement of organ fat weight in high fat diet mice; details: compared with HFD group (FIGS. 10 and 11)
Description: (§1) From the time of arrival, all animals underwent a 6-week induction period, including a one-week acclimation period. The mice were divided into normal diet (negative control) and high fat diet (positive control and experiment group) and each fed, while given feed and water ad libitum for 6 weeks from the day of division (day 0). The CJLS03 according to the present disclosure was grouped according to concentrations (low: 10^8 CFU, medium: 10^9 CFU, high: 10^10 CFU). […]
(§2) For administration, the lactic acid bacteria were homogeneously suspended in PBS and administered in a 10 mL/kg of administration volume twice daily at determined times (10:00 A.M. to 11:00 A.M., 5:00 P.M. to 6:00 P.M.) for 7 weeks, while the control groups were orally administered with the same amount of solvent vehicle (PBS) twice daily for 7 weeks. […]
After blood was collected, the visceral examination was carried out to confirm the presence of abnormalities in the internal organs, and the adipose tissues (epididymal fat, subcutaneous fat, mesenteric fat) were extracted. […] The weight of each adipose tissue was measured with an electronic balance. Additionally, the relative tissue weight per 100 g of body weight was calculated based on the body weight fasted before autopsy (calculation formula: relative organ weight (%)=organ weight (g)/fasting body weight before autopsy (g)×100). […]

[2] = test system: obesity induced mice with high fat diet; assay: Autopsy and blood biochemistry examination in high fat diet mice; details: serum, day 49, 16 h fasted, compared to HFD or GC group (FIG. 9)
Description: (§3) From the time of arrival, all animals underwent a 6-week induction period, including a one-week acclimation period. The mice were divided into normal diet (negative control) and high fat diet (positive control and experiment group) and each fed, while given feed and water ad libitum for 6 weeks from the day of division (day 0). The CJLS03 according to the present disclosure was grouped according to concentrations (low: 10^8 CFU, medium: 10^9 CFU, high: 10^10 CFU). To measure accurate efficacy, a commercially available FDA-approved anti-obesity drug Orlistat (Product name: Zenical), and a health function food Garcinia cambogia were added as experiment groups in addition to the normal diet control group and high fat diet group, and compared with the anti-obesity function of the lactic acid bacterial.
For administration, the lactic acid bacteria were homogeneously suspended in PBS and administered in a 10 mL/kg of administration volume twice daily at determined times (10:00 A.M. to 11:00 A.M., 5:00 P.M. to 6:00 P.M.) for 7 weeks, while the control groups were orally administered with the same amount of solvent vehicle (PBS) twice daily for 7 weeks. Experimental substances were newly prepared and administered into the A.M. and P.M.-administered strain. All strains were stored under refrigeration so as to retain the active condition thereof, and the PBS which was refrigerated was used for washing strain samples and preparing solutions. The experimental animal of each group was fasted for 16 hours and sacrificed on the termination day of experiment (day 49) to be used for blood biochemistry tests and histological evaluation analysis.
On the day of termination of the experiment according to Example 4-1 (day 49), the experimental animals were sacrificed after stopping their diets for 16 hours and autopsied. All of the experimental animals were subjected to collection of about 500 μL to 700 μL of blood using a heparin-free capillary tube of plexus venosus under an ether inhalation anesthesia. The collected blood was put in an SST tube and coagulated for 30 minutes to 1 hour at room temperature. The blood was then centrifuged at 4° C. and 4000 rpm for 10 minutes to separate the serum followed by storing at −80° C. until the analysis. The amounts of glucose (GLU), triglyceride (TG), total cholesterol (TC), low-density lipoprotein cholesterol (LDL), high-density lipoprotein cholesterol (HDL), glutamate oxaloacetate transaminase (GOT; AST), glutamate pyruvate transaminase (GPT; ALT), CREA (creatinine), and lactate dehydrogenase (LDH) in the separated serum were measured using a blood biochemistry (Accute TBA-40FR, Toshiba Medical System Co., Japan).

[3] = test system: obesity induced mice with high fat diet; assay: Measurement of size of adipocytes in high fat diet mice; details: compared to HFD and GC groups; CJLS03 high concentration group (FIG. 13)
Description: as §1, §2
Measuring the size of adipocytes is well known as an effective method capable of proving the anti-obesity efficacy. […] The adipocyte photos were analyzed using the Scion image program (derived from NIH Image) by calculating an average value of two adipocyte sizes. […]

[4] = test system: obesity induced mice with high fat diet; assay: Histological evaluation of liver tissue (H & E) in high fat diet mice; details: H & E stained liver sections; CJLS03 high concentration group (FIG. 12)
Description: as §3
For administration, the lactic acid bacteria were homogeneously suspended in PBS and administered in a 10 mL/kg of administration volume twice daily at determined times (10:00 A.M. to 11:00 A.M., 5:00 P.M. to 6:00 P.M.) for 7 weeks, while the control groups were orally administered with the same amount of solvent vehicle (PBS) twice daily for 7 weeks. Experimental substances were newly prepared and administered into the A.M. and P.M.-administered strain. […]
Liver tissues of the ND, HFD, OLS, GC, and high CJLS03 concentration groups were histologically evaluated. […]

## CCCCCCCCCCC[C@@H](C[C@@H]1OC(=O)[C@H]1CCCCCC)OC(=O)[C@H](CC(C)C)NC=O [OLS, Orlistat]
[1]; body weight after 16 h fasting before autopsy
  fasting weight: lower than those of the HFD group
[1]; epididymal, subcutaneous, mesenteric fat
  adipose tissue weights: lower than those of the HFD group
[2]
  concentration of blood HDL: significantly reduce
  concentration of blood LDL: significantly reduce
  concentration of blood TC (total cholesterol): significantly reduce
  concentration of blood glucose: significantly reduce
[3]
  sizes of the adipocytes: significantly reduced
[4]
  lipid particles in liver tissue: rarely found
